Experimental data published in patent US20250248922A1, “METHOD OF PREPARING A MASTOCARPUS STELLATUS EXTRACT” (GIVAUDAN SA, priority 2022, published 2025).

Test system: human mature adipocytes
Test: Lipolytic activity: glycerol release by 3D culture of human mature adipocytes
Assay type: cell-based
Conditions: 72 h of treatment, extract 0.5%
Procedure: Mature adipocytes were isolated from subcutaneous adipose tissue after digestion by collagenase. The isolated adipocytes were washed with a wash buffer and encapsulated in a peptidic hydrogel to form 3D adipocytes capsules of 25 μl in size. The formation of adipocytes capsules followed an internal standardized protocol to have about the same number of adipocytes between the capsules. Cells were then incubated for 24 h at 37° C. for stabilization. Treatments with Mastocarpus stellatus extract at 0.5% were initiated at D0 with a medium change; and the culture media were changed every day until 4 days of culture. At each culture media change, the cells secretions were collected, centrifuged and frozen at-80° C. for further analysis. Each culture condition was done in triplicate. The culture media after 72 h of treatment were collected. The concentrations of adiponectin and glycerol were evaluated by ELISA and colorimetric assays, respectively, using specific kits according to the manufacture's recommendations (adiponectin kit, Duoset, DY1065, R&D Systems; Glycerol kit, Randox, GY105).

CC(C)NCC(O)c1ccc(O)c(O)c1 (centres unmarked) [Isoproterenol]
Glycerol release (% of untreated), average (isoproterenol 1 μM (positive control)): 295.6 % of untreated | increase of glycerol release (isoproterenol 1 μM, vs untreated): +196%
